Data taken from article PMC6651555, “Cathepsin L Inhibitors with Activity against the Liver Fluke Identified From a Focus Library of Quinoxaline 1,4-di-N-Oxide Derivatives” (Molecules, 2019).
“Also recorded” adds a separate entry of the source.

Columns and labels:
FhCL1 [1] = molecular target: T1, FhCL1 (Fasciola hepatica, UniProt Q7JNQ9); assay: FhCL1 inhibition screening, IC50 and slow-binding (fluorogenic substrate Z-VLK-AMC); assay type: biochemical; conditions: 10 μM, preincubation 5 to 120 min
T1 construct: made in house; host or cells: Hansenula polymorpha (yeast)
T1 sequence (Q7JNQ9 entry or part of it): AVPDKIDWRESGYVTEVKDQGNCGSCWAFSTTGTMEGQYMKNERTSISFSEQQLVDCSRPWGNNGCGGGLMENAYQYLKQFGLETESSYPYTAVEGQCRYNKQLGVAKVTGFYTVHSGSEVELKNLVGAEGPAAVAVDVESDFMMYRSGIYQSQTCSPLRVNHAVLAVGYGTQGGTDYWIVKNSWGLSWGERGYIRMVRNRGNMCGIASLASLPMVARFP

FhCL1 [2] = molecular target: T1, FhCL1; assay: as above; assay type: biochemical; conditions: read-out: %Inh FhCL1, 10 µM compound, 20 min preincubation, relative to enzyme alone; SD less than 10%
Method: (§1) Each compound was completely dissolved in dimethylsulfoxide (DMSO) to a concentration of 10 mM to prepare the stock solutions. To evaluate the inhibition of FhCL1 and FhCL3 by quinoxaline 1,4-di-N-oxide derivatives, nanomolar concentrations of each enzyme was incubated with compounds at 10 μM. Briefly, each enzyme and compound were preincubated 20 min in a 96-well plate in 0.1 M sodium phosphate buffer pH 6, 1 mM DTT, and 1 mM EDTA at room temperature. The reaction was initiated by adding 20 μM of substrate and enzyme activity was measured by the increase in aminomethyl coumarin (AMC) fluorescence as peptide substrates were hydrolyzed (Z-VLK-AMC for FhCL1 and Tos-GPR-AMC for FhCL3), at an excitation wavelength of 340 nm and emission wavelength of 440 nm using a spectrofluorometer (Varioskan Thermo, Waltham, MA, USA). Enzyme activity was expressed as RFU/s (relative fluorescence units of AMC released per second). Each compound was tested in triplicate. A control reaction without enzymes was performed to check for the occurrence of non-catalyzed reactions between substrates and inhibitors and a spectrum from 300 to 450 nm wavelength was done for each quinoxaline 1,4-di-N-oxide derivative to verify that none of them had optical activity in the measurement range. The percentage of enzyme inhibition was calculated as 100 − (vi/vo) × 100, where vi and vo correspond to the initial rate of AMC fluorescence increase (RFU/s) with and without inhibitor, respectively.
(§2) To calculate the IC50 values, compounds were incubated with each enzyme at seven different concentrations; 0.625, 1.25, 2.5, 5, 10, 20, and 40 μM. Then, the enzyme activity was measured in a 96-well plate as described before. We plotted initial rates (RFU/s) versus log10 of inhibitor concentrations and obtained the IC50 values by fitting the data to a sigmoid curve. We also carried out slow-binding assays to evaluate the time-dependence of the inhibition. Each compound was incubated at 10 μM with the enzyme for increasing lengths of time; 3 to 120 min and the percentage of inhibition at each time point was determined as described before. We calculated the inhibition percentage of the leader compounds at 10 μM for HsCL1. The enzyme was preincubated for 20 min with the compounds and the activity was measured in a 96-well plate in 400 mM sodium acetate, pH 5.5, with 4 mM EDTA, 8 mM DTT, and 20 μM of substrate Z-VLK-AMC. The percentage of enzyme inhibition was calculated as described for FhCL1 and FhCL3. We determined the IC50 value for C17 against HsCL by incubating the enzyme with four different concentrations of the compound 0, 10, 25, and 50 μM and measuring the activity as described before. We plotted initial rates (RFU/s) versus log10 of inhibitor concentration and obtained the IC50 value by fitting the data to a sigmoid curve.

FhCL3 [3] = assay: FhCL3 inhibition screening, IC50 and slow-binding (fluorogenic substrate Tos-GPR-AMC); assay type: biochemical, Fasciola hepatica; conditions: 10 µM compound, 20 min preincubation, relative to enzyme alone; SD less than 10%
Method: as §1, §2

F. hepatica NEJ [4] = assay: In vitro culture of NEJ and treatment with inhibitors (motility score); assay type: cell-based, Fasciola hepatica; conditions: 50 μM compound, over 96 h
Method: F. hepatica metacercariae were acquired from Instituto Miguel C. Rubino (DILAVE, MGAP, Uruguay). NEJ were obtained by in vitro excystement as previously described with minor modifications. Briefly, metacercariae were incubated with 1% sodium hypochlorite for 5 min at room temperature to remove the outer cyst wall and then washed several times with PBS. Metacercariae activation was carried out in a medium prepared by mixing equal volumes of solution A (0.4% sodium taurocholate, 120 mM NaHCO3, 140 mM NaCl, pH 8.0) and solution B (50 mM HCl and 33 mM L-cysteine), and incubating at 39 °C until the NEJ begin to emerge (around 3–4 h). A 100 μm filter was used to retain the cyst wall. Collected NEJ were washed three times with RPMI-1640 supplemented with 200 U/mL Penicillin G sulfate, […] streptomycin sulfate, 500 ng/mL amphotericin B, 10 mM HEPES, counted and divided into groups of around 20 parasites that were transferred to 96 wells in tissue culture plates. Parasites were maintained at 37 °C, 5% CO2 in modified Basch’s medium. At day 1, each tested compound was added at a concentration of 50 μM in 0.5% DMSO. Also, 0.5% of DMSO was added to the control groups. Each condition was tested in duplicate. NEJ behavior was monitored under a light microscope (Olympus BX41, Hamburg, Germany), every day each well was recorded for a minute in order to assess parasite motility and registered using the following score: 3—normally active; 2—reduced activity (sporadic movement); 1—immotile (dead, adapted from). Control parasites were maintained in culture for seven days.

HepG2 cell line = assay: Cytotoxicity on the HepG2 cell line (Sulforhodamin B); assay type: cell-based; conditions: Homo sapiens, 24 h incubation with compound
Method: (§3) Cytotoxicity studies on the HepG2 cell line. Cells: 1.5 × 10^4 cells per 96-well plate were cultured in 225 µL of DMEM medium, supplemented with L-glutamine (1%), penicillin/streptomycin (1%), and 10% (v/v) fetal bovine serum (FBS). The cultures were maintained at 37 °C and 5% CO2 for 48 h. Treatment: Compound solutions were prepared just before dosing. Stock solutions, […], were prepared in 100% DMSO (Aldrich, Saint Louis, MO, USA) and 25 µL of adequate dilution was added to each well 24 h after plating the cells. For each compound, a dose-response curve was done with five different compound concentrations: 6.25, 12.5, 25, 50, and 100 µM (treated cells, T). No effect on cell growth was observed by the presence of 0.5% DMSO in the culture media (control cells, C). Cells were incubated with the compounds for 24 h at 37 °C in 5% CO2 atmosphere, then the medium was discarded and the cells were washed with PBS. The cells were then fixed with 50 µL of TCA (50%) and 200 µL of culture medium (without FBS) for 1 h at 4 °C. Then the cells were washed with purified water and treated with Sulforhodamin B (0.4% wt/vol in 1% acetic acid) for 10 min at room temperature. The plates were then washed with 1% acetic acid and dried overnight. Finally, 100 µL of Tris buffer (pH = 10.0) was added and absorbance read at 540 nm. Data calculations: The assays were done in four replicates. At the end of the experiment, the cell survival percentage (SP) was calculated for each compound as (T/C) × 100. To determine the IC50, the SP of cells at each compound concentration was plotted and the data were fitted to a sigmoid curve. The standard error was not greater than 10% for any condition. For the cytotoxicity assay with bovine spermatozoa, semen samples were obtained from a healthy fertile Hereford bull and kept frozen in 0.5 mL straws (extended in Andromed, Minitube, Tiefenbach, Germany) under liquid nitrogen until use. The semen used belonged to a single freezing batch that was obtained during a regular collection schedule with an artificial vagina. Samples from three straws were thawed and a sperm pool was prepared in PBS at a concentration of 80 million spermatozoa per ml. Then, 50 μL of this pool was carefully mixed with 50 μL of each compound to be tested at a concentration of 50 µM or 1% DMSO in control experiments. Each compound was assayed in triplicate in 96-well plates and controls were assayed in triplicate. Plates were incubated at 37 °C for 1 h with moderate shaking. The motility analysis was carried out using a CASA (Computer Assisted Semen Analyzer) system Androvision (Minitube, Tiefenbach, Germany) with an Olympus BX 41 microscope (Olympus, Japan) equipped with a warm-stage at 37 °C. Each sample (10 μL) was placed onto a Makler Counting Chamber (depth 10 μm, Sefi-Medical Instruments, Haifa, Israel) and the following parameters were evaluated: percentage of total motile spermatozoa (motility >5 μm/s) and velocity curved line (VCL > 24 μm/s). At least 400 spermatozoa were analyzed from each sample from at least four microscope fields.

human cathepsin L (HsCL) = human cathepsin L (HsCL) (Homo sapiens, UniProt P07711); assay: Human cathepsin L (HsCL) inhibition, selectivity assessment; assay type: biochemical
human cathepsin L (HsCL), sequence (P07711 114-333): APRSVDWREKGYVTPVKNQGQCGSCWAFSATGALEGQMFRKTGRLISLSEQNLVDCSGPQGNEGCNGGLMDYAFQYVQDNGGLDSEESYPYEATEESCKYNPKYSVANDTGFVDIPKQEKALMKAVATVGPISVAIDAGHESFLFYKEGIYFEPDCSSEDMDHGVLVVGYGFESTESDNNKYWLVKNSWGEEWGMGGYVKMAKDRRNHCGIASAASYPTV
Method: as §2

bovine spermatozoa = assay: Cytotoxicity assay with bovine spermatozoa (CASA motility); assay type: cell-based; conditions: 50 µM, 1 h at 37 °C, relative to control sperm incubated with vehicle
Method: as §3

F. hepatica NEJ [5] = assay: In vitro culture of NEJ and treatment with inhibitors (motility score); assay type: cell-based; conditions: Fasciola hepatica; after 48 h of incubation with NEJ; read-out: IC50 against NEJ
FhCL3 [6] = assay: FhCL3 inhibition screening, IC50 and slow-binding (fluorogenic substrate Tos-GPR-AMC); assay type: biochemical, Fasciola hepatica; conditions: 10 μM, preincubation 5 to 120 min

Row | Compound | Time-dependence of FhCL1 inhibition (slow-binding) (FhCL1 [1]) | inhibition at 10 µM (FhCL1 [2]) [%] | %Inh FhCL3 (FhCL3 [3]) [%] | Effect on NEJ motility / fasciolicide activity in vitro (F. hepatica NEJ [4]) | IC50 (HepG2 cell line) [µM] | IC50 (human cathepsin L (HsCL); dose-response at 0, 10, 25 and 50 μM) [µM] | Selectivity index FhCL1 (human cathepsin L (HsCL); parasite enzyme FhCL1 over human cathepsin L) | Selectivity index FhCL3 (human cathepsin L (HsCL); parasite enzyme FhCL3 over human cathepsin L) | Sperm Motility RTC (relative to control) (bovine spermatozoa) | IC50 (F. hepatica NEJ [5]) [µM] | Time-dependence of FhCL3 inhibition (slow-binding) (FhCL3 [6])
1 | N#Cc1c(N)[n+]([O-])c2ccc(/C=N/NC(=O)NCCc3ccccc3)cc2[n+]1[O-] [Compound C7] | required short times to inhibit FhCL1 enzyme | 90 | 61 | did not have activity against the parasites; also recorded: did not have fasciolicidal activity |  |  |  |  |  |  | 
2 | C=CCNC(=S)N/N=C/c1ccc2c(c1)[n+]([O-])c(C(=O)OCC)c(-c1ccccc1)[n+]2[O-] [Compound C17] | required short times to inhibit FhCL1 enzyme | ≥ 80 |  | progressive decrease of parasite motility starting between 24 and 96 h of culture; also recorded: strong fasciolicide activity in vitro | 48 ± 0.3 | 13 | 9.3 | 2.6 | 81 ± 3 | 25.1 | 
3 | CCOC(=O)c1c(-c2ccccc2)[n+]([O-])c2ccc(CN3CCN(C/C=C/c4ccccc4)CC3)cc2[n+]1[O-] [Compound C18] |  | 55 | 61 | progressive decrease of parasite motility starting between 24 and 96 h of culture; also recorded: strong fasciolicide activity in vitro | < 6.2 |  |  |  | 82 ± 2 |  | reached high inhibition of FhCL3 within a few minutes of incubation
4 | C=CCNC(=S)N/N=C/c1ccc2c(c1)[n+]([O-])c(-c1ccccc1)c(C(=O)Nc1ccccc1)[n+]2[O-] [Compound C23] | required short times to inhibit FhCL1 enzyme | ≥ 80 |  | slightly affected parasite motility; also recorded: did not have fasciolicidal activity | 12 ± 0.2 |  |  |  | 82 ± 1 |  | reached high inhibition of FhCL3 within a few minutes of incubation
